Data as given in patent US20250090510A1, “eIF4G1-eIF1 INHIBITORS AND USE THEREOF” (YEDA RESEARCH AND DEVELOPMENT CO. LTD., priority 2022, published 2025).

Target: T1, eIF1-eIF4G1 complex (Homo sapiens, UniProt Q04637)
T1 construct: co-immunoprecipitation of endogenous eIF4G1 in HEK293T cells expressing HA-eIF1 or HA-eIF4E was performed; endogenous in cells; host or cells: HEK293T (eIF4G1 endogenous; HA-eIF1 transfected)
Assay: Co-immunoprecipitation of endogenous eIF4G1 with HA-eIF1
Format: cell-based
Settings: HEK293T; i14G1-10 20 μM, i14G1-12 10 μM; 4 h
Method: FIGS. 2A-C: The effect of i14G1-10 and i14G1-12 on eIF1-eIF4G1 and eIF4E-eIF4G1 complexes. (2A-B) HA-eIF1 and HA-eIF4E were each transfected into HEK293T cells and 48 h after transfection cells were treated with DMSO or i14G1-10 (2A) or i14G1-12 (2B) for 4 h, followed by immunoprecipitation of HA-eIF1 or HA-eIF4E using anti-HA-agarose beads. Western blot was run to check co-immunoprecipitation of endogenous eIF4G1 with HA-eIF1 or HA-eIF4E. The graphs represent the co-immunoprecipitation of eIF4G1 with HA-eIF1 (right) or HA-eIF4E (left). Co—IP data shown as mean±SEM of 4-7 independent experiments. The asterisks denote statistically significant difference compared to DMSO, according to Student's t-tests (one-tailed, paired). *p<0.05. (2C) HEK293T cells were treated with DMSO, i14G1-10, or i14G1-12 for 4 h, followed by cell lysis. Respective cell lysates were incubated with cap analog (γ-Aminohexyl-m7GTP) beads for 2 h to precipitate bound eIF4E. Western blot was performed to check co-precipitation of eIF4G1 along with eIF4E on the cap-analog beads. The graph represents the binding fraction of eIF4G1 and eIF4E to the cap-analog beads (mean±SEM) with DMSO (black), i14G1-10 (blue), and i14G1-12 (red), n=6. The asterisks denote statistically significant difference compared to DMSO, according to Student's t-tests (one-tailed, paired). *p<0.05; **p<0.01.
Co-immunoprecipitation. HEK293T cells were transfected with 5 μg of HA-eIF1 or HA-eIF4E plasmids along with 10 ng GFP plasmid to check for transfection efficiency using Jetprime reagent as per manufacturer's protocol. After 48 h, HA-eIF1 and HA-eIF4E expressing HEK293T cells were incubated with DMSO, i14G1-10 (20 μM), and […] (10 μM). 4 h later, cells were lysed using IP buffer (20 mM Tris pH8, 125 mM NaCl, 10% glycerol, 50 mM NaF, 1 mM […], 0.5% NP-40, and 0.2 mM EDTA) supplemented with fresh protease inhibitor cocktail (1:100) and PMSF 200 μM (1:100). Protein extract was taken for immunoprecipitation using either monoclonal anti-HA-agarose antibody (Sigma) or control IgG antibody in IP buffer, at 4° C. for 2 hours. […]

T1 sequence (Q04637 whole entry, one chain of several): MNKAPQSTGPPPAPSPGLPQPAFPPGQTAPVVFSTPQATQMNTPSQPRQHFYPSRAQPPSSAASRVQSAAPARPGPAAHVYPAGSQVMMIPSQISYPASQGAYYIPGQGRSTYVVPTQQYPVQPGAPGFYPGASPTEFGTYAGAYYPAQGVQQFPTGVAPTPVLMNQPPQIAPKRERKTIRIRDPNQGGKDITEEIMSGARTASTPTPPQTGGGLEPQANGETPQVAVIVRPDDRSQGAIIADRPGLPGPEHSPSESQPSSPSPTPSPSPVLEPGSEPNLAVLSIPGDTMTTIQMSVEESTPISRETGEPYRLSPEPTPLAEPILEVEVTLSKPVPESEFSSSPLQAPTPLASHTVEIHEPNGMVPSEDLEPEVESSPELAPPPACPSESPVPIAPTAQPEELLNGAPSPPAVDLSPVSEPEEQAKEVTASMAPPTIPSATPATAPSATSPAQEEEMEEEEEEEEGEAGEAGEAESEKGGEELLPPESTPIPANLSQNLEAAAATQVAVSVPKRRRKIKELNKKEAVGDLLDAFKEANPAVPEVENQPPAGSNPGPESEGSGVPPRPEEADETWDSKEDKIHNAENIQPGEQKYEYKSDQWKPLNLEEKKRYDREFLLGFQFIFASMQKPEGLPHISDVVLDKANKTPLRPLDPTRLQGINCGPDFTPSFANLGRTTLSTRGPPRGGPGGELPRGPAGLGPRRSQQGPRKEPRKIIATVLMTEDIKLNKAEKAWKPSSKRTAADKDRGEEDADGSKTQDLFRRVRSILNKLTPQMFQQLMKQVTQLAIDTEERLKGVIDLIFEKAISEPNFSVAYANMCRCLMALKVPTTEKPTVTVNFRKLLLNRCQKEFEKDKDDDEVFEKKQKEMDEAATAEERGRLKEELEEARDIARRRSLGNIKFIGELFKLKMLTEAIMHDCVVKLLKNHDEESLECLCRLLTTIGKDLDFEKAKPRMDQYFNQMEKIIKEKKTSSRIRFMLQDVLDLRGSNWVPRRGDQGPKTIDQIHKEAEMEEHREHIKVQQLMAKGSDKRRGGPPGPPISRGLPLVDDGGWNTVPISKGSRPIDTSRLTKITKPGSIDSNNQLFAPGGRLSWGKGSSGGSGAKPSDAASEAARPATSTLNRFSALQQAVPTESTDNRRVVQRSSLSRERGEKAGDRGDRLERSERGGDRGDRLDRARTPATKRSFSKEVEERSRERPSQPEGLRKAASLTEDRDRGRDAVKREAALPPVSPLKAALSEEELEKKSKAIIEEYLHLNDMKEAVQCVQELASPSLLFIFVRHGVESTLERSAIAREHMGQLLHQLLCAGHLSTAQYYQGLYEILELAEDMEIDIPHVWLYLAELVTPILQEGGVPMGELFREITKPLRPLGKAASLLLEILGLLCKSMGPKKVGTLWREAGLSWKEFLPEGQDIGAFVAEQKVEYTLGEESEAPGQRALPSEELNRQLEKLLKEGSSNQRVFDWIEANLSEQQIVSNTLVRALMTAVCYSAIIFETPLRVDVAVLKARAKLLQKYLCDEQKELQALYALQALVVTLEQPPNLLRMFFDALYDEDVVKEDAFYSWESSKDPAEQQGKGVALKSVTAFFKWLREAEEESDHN

Structure (SMILES)	reduction in eIF4G1 binding to HA-eIF1
O=C(/C=C/Sc1ccc(C(F)(F)F)cn1)c1ccccc1 [i14G1-10]	50%
Cn1ccnc1S/C(=C/C=C(C#N)C#N)c1ccc(Cl)cc1 [i14G1-12]	25%
